32 compounds from ChEMBL document CHEMBL3797128, “N,N-Disubstituted thiourea and urea derivatives: design, synthesis, docking studies and biological evaluation against nitric oxide synthase” (Medchemcomm, 2016) can be followed below.

The inhibition is the drop in the measured response relative to a control, in per cent. The IC50 is the midpoint of a concentration-inhibition curve.

Calls of active or inactive are those of the source. The rule behind the calls is not given here. Bounds are passed on as bounds.

The target of series [1] is Nitric oxide synthase, inducible (Homo sapiens) (UniProt P35228). Description: Inhibition of recombinant N-terminal His-tagged human iNOS expressed in Escherichia coli assessed as L-[3H]-citrulline formation at 1 mM using L-[3H]-arginine as substrate after 30 mins by liquid scintillation spectroscopy.
Target sequence in this assay (P35228 whole entry): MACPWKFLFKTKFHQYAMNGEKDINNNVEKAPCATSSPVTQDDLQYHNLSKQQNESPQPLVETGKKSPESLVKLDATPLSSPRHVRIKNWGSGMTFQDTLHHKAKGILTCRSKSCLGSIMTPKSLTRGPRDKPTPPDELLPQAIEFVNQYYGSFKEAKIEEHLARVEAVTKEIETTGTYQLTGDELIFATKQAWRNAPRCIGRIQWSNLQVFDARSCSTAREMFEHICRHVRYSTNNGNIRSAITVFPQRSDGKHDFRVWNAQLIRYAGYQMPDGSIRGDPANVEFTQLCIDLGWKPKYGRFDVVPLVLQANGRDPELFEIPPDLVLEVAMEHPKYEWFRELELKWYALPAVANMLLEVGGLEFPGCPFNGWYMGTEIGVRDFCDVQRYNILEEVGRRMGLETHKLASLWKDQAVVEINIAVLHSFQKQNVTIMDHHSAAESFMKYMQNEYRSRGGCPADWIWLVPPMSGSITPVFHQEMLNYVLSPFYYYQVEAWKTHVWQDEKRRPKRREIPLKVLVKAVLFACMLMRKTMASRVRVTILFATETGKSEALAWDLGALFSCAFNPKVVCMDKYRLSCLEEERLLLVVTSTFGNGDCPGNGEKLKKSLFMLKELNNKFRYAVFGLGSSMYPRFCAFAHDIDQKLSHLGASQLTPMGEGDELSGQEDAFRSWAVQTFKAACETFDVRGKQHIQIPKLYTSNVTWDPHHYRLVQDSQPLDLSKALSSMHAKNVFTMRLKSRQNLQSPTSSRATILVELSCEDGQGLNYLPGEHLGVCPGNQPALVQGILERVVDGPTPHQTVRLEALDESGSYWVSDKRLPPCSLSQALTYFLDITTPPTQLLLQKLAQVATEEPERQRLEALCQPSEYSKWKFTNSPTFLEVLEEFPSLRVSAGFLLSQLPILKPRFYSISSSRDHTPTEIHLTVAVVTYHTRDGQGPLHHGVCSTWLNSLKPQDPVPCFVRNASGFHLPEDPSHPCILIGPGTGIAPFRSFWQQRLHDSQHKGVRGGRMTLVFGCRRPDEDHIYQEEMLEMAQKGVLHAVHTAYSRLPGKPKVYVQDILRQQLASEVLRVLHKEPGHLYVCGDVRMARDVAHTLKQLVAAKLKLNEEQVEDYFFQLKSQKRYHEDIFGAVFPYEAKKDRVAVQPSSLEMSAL
Series [2] has as its target Nitric oxide synthase 1 (Homo sapiens) (UniProt P29475). Description: Inhibition of recombinant nNOS (unknown origin) assessed as L-[3H]-citrulline formation at 1 mM using L-[3H]-arginine as substrate after 30 mins by liquid scintillation spectroscopy.
The target in series [3] is Nitric oxide synthase, brain (Homo sapiens) (UniProt P29475). Description: Inhibition of recombinant N-terminal His-tagged human nNOS expressed in Escherichia coli assessed as L-[3H]-citrulline formation using L-[3H]-arginine as substrate after 30 mins by liquid scintillation spectroscopy.
Series [4] addresses Nitric oxide synthase, inducible (Homo sapiens) (UniProt P35228). Description: Inhibition of recombinant iNOS (unknown origin) assessed as L-[3H]-citrulline formation using L-[3H]-arginine as substrate after 30 mins by liquid scintillation spectroscopy.
Target sequence in this assay (P35228 whole entry, looked up): as the sequence (P35228 whole entry) above
The target of series [5] is T1, Nitric oxide synthase 3 (Rattus norvegicus) (UniProt Q62600).
T1 sequence (whole entry): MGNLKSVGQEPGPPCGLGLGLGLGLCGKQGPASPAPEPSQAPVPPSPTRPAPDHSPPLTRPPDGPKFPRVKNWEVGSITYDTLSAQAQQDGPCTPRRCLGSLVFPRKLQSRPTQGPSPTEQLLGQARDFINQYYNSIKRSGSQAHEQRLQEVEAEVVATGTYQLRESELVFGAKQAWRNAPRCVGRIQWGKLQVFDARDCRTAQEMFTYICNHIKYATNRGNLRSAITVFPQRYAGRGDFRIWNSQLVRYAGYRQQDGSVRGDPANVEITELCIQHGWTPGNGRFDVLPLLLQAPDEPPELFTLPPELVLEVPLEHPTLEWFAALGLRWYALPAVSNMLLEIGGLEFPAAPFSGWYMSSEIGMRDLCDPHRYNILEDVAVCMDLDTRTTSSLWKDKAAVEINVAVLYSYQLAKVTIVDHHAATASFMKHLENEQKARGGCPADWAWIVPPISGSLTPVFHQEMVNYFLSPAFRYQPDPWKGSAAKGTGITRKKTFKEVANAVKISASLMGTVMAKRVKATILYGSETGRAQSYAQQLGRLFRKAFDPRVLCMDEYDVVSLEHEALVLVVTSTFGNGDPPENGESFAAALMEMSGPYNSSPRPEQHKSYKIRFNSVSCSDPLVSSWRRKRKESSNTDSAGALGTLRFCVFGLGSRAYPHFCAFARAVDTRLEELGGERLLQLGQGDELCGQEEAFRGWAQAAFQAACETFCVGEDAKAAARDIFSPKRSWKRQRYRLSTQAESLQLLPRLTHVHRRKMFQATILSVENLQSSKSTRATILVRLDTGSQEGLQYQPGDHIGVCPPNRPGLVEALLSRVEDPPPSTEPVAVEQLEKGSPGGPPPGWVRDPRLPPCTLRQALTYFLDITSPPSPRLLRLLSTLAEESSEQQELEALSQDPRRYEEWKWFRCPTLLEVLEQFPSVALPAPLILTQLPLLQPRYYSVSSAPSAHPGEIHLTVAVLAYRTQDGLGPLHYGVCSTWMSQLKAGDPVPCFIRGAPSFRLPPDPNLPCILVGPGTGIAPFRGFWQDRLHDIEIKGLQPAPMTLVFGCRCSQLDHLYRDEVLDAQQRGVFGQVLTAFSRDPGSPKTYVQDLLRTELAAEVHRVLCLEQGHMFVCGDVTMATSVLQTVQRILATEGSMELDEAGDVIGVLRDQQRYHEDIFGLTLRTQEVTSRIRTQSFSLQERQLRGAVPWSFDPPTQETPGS
Description: Inhibition of eNOS in Wistar rat aortic rings assessed as suppression of acetylcholine evoked endothelial dependent relaxation of precontracted aortic rings at 100 umol/l after 30 mins.

Series [6] concerns the target T2, Nitric oxide synthase 3 (Homo sapiens) (UniProt P29474).
T2 sequence (whole entry): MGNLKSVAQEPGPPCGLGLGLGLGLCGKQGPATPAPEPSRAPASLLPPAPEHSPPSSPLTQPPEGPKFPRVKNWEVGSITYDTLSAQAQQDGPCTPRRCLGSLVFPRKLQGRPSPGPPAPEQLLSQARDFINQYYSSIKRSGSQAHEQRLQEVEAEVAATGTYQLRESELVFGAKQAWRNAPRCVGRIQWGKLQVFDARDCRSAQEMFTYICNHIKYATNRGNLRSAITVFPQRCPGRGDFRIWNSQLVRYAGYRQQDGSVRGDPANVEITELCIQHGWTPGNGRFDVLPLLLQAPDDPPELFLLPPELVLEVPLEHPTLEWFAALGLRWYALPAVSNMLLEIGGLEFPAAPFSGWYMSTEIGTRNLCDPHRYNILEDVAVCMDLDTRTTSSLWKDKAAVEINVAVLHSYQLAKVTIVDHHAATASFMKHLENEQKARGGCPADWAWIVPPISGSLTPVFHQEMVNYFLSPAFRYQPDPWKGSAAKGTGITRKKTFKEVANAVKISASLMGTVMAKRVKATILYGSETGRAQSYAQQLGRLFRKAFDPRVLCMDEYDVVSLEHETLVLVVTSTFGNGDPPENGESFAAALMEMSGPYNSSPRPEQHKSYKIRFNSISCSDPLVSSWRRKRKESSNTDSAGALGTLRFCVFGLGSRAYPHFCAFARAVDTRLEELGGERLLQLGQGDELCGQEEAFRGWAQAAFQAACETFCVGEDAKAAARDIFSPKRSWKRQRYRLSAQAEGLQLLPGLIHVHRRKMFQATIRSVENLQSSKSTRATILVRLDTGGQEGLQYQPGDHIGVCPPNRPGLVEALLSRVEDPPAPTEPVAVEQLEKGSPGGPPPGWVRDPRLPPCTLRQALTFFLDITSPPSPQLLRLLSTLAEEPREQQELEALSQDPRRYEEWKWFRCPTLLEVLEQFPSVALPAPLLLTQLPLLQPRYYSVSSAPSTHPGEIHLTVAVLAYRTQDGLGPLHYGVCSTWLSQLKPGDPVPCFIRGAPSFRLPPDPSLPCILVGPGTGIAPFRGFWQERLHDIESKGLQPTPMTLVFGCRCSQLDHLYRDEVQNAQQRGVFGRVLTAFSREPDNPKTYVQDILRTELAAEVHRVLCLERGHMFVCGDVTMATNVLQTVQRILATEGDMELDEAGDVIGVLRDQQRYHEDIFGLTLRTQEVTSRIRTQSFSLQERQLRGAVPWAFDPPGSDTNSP
Kind of series: Inhibition of eNOS in HUVEC cells assessed as A23187 stimulated nitric oxide production at 100 umol/L preincubated for 30 mins using L-arginine as substrate for 5 mins followed A23187 addition measured after 30 mins by DAF2 dye based spectrofluorimetry. Format: cell-based.

In series [7] the target is T1, Nitric oxide synthase 3 (Rattus norvegicus). Description: Inhibition of eNOS in Wistar rat aortic rings assessed as effect on acetylcholine evoked endothelial dependent relaxation of precontracted aortic rings at 100 umol/l after 30 mins.
In another series the test system is HUVEC. Kind of series: Cytotoxicity against HUVEC cells assessed as reduction in cell viability at >1 mM after 30 mins by MTT assay. The settings on record: human, 0.5 h. Format: cell-based. On the technique in general: Formazan colour is commonly taken as a measure of viable cells.

Nitric oxide synthase, brain (Homo sapiens), sequence (P29475 whole entry, looked up): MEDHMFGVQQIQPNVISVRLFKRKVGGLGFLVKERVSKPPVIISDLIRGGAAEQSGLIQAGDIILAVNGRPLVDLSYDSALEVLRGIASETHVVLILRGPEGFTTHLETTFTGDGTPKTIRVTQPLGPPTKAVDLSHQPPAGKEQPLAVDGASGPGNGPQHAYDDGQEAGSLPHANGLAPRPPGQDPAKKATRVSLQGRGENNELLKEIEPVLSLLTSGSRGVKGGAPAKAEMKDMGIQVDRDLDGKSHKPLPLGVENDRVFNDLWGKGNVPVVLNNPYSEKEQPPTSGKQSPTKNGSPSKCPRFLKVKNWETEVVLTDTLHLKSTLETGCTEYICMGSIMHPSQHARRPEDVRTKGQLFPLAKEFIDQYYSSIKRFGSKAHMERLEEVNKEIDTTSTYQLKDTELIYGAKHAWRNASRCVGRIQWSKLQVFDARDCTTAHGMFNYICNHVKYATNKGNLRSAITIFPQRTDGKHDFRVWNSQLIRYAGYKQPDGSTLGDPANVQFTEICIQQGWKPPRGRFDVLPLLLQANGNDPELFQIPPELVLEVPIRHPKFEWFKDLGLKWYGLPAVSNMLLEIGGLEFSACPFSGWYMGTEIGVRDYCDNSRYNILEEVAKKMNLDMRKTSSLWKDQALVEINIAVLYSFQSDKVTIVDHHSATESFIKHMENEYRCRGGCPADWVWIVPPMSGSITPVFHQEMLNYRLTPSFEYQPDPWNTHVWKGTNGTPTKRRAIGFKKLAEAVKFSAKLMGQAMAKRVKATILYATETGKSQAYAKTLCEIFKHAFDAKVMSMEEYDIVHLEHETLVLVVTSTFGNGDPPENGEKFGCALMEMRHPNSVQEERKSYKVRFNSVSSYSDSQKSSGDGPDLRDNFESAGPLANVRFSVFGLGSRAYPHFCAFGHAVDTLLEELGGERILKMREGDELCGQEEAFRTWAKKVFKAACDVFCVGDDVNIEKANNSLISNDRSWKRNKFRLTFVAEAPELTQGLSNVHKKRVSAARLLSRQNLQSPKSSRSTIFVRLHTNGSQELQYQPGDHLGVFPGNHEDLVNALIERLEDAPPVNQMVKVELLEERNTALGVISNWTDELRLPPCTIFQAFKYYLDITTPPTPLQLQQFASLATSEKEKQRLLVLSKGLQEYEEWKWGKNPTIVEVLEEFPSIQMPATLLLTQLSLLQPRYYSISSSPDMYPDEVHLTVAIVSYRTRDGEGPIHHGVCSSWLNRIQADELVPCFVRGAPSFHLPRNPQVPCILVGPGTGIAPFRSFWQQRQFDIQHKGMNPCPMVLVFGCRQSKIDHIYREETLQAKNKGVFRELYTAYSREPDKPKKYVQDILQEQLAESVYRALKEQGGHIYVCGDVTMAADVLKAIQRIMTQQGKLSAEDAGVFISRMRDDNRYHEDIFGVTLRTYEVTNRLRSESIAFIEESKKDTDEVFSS
Nitric oxide synthase 1 (Homo sapiens), sequence (P29475 whole entry): as the sequence (P29475 whole entry, looked up) above

For `CCCC(=O)NCCC(=O)c1cc(OC)ccc1N`, in series [1], the inhibition is 7.35%.
For the compound `Nc1ccccc1C(O)CCNC(=O)Nc1ccccc1` (stereo unspecified), the values for the inhibition in series [2] and in series [1] were 17.7% and 27.9%, respectively.
In the case of `CC(=O)NCCC(=O)c1cc(Cl)ccc1N`, the inhibition in series [1] turned out to be 19.7%.
On to `COc1ccc(N)c(C(=O)CCNC(=O)C2CCCC2)c1`, for which the inhibition in series [1] came to 0.61%.
Same read-out and setting: as for `CCCCC(=O)NCCC(=O)c1cc(OC)ccc1N`, the figure is 14.1%.
For the compound `CCCNC(=S)NCCC(O)c1cc(OC)ccc1N` (stereo unspecified), the inhibition in series [2] amounted to 6.02%; in series [1], 25.4%.
For `CCCNC(=O)NCCC(O)c1cc(Cl)ccc1N` (stereo unspecified), in that order: 23.8% and 19.6%.
For `CCCNC(=O)NCCC(O)c1ccccc1N` (stereo unspecified) the same measures were 7% and 19%.
Consider `COc1ccc(N)c(C(=O)CCNC(=O)C2CCCCC2)c1`, for which, in series [1], the inhibition turned out to be 9.24%.
Regarding `COc1ccc(N)c(C(=O)CCNC(=O)C2CC2)c1`, the inhibition in series [1] was 2.66%.
Take `COc1ccc(N)c(C(O)CCNC(=O)Nc2ccccc2)c1` (stereo unspecified): the figures for the inhibition in series [2] and in series [1] were 12.1% and 12.3%, respectively.
Turning to `CCNC(=S)NCCC(O)c1ccccc1N` (stereo unspecified), the figures for the inhibition in series [2] and in series [1] were 44.8% and 19.4%, respectively.
Take `Nc1ccc(Cl)cc1C(=O)CCNC(=O)c1ccccc1`: in series [1], the inhibition is 26.6%.
Consider `CCNC(=O)NCCC(O)c1ccccc1N` (stereo unspecified), for which the inhibition in series [2] is 7.81%; in series [1] it was 18.3%.
For `COc1ccc(N)c(C(=O)CCNC(C)=O)c1`, in series [1], the inhibition worked out at 30.7%.
Turning to `CNC(=S)NCCC(O)c1ccccc1N` (stereo unspecified), the IC50 is 350 µM in series [3] and above 1000 µM in series [4]. Also, the inhibition in series [2] came out at 70.2%; in series [1], 20.7%.
Consider `CCNC(=O)NCCC(O)c1cc(OC)ccc1N` (stereo unspecified), for which the inhibition in series [2] was 43%; in series [1], 26.6%.
For the compound `Nc1ccc(Cl)cc1C(O)CCNC(=O)Nc1ccccc1` (stereo unspecified), the inhibition in series [2] was 38.6%; in series [1] it was 3.11%.
Take `CCNC(=S)NCCC(O)c1cc(Cl)ccc1N` (stereo unspecified): the IC50 was found to be 770 µM in series [3] and 800 µM in series [4]. Moreover, the inhibition in series [2] is 70.6%; in series [1], 60.4%.
With `COC(=O)[C@@H](N)CCCNC(=N)N[N+](=O)[O-]`, the inhibition entry in series [5] was “Active”.
For `CCCNC(=S)NCCC(O)c1cc(Cl)ccc1N` (stereo unspecified), the IC50 in series [3] is above 1000 µM; in series [4], 860 µM. The values for the inhibition in series [2] and in series [1] were 32.4% and 55%, respectively.
Consider `CNC(=S)NCCC(=O)c1cc(OC)ccc1N`, for which the inhibition in series [2] came to 46%; in series [1] it was 78.2%.
Take `CCNC(=O)NCCC(=O)c1cc(Cl)ccc1N`: the inhibition in series [2] amounted to 9.86%; in series [1], 78.6%.
Consider `Nc1ccc(Cl)cc1C(=O)CCNC(=O)C1CC1`, for which the inhibition in series [1] came out at 5.37%.
On to `COc1ccc(N)c(C(=O)CCNC(=O)c2ccccc2)c1`, for which the inhibition in series [1] was determined as 10.9%.
Regarding `CNC(=S)NCCC(O)c1cc(Cl)ccc1N` (stereo unspecified), the IC50 in series [3] was 710 µM; in series [4] it was above 1000 µM. Moreover, the inhibition is 70.5% in series [2] and 22.1% in series [1].
Take `CNC(=S)NCCC(O)c1cc(OC)ccc1N` (stereo unspecified): the IC50 is 130 µM in series [3] and 180 µM in series [4]. Also, the inhibition entry in series [6] and in series [7] was “inactive” in each case. For the same compound, the Activity in the series on HUVEC came out at 20%. For the same compound, the inhibition worked out at 80.5% in series [2] and 76.5% in series [1].
As for `CCNC(=O)NCCC(O)c1cc(Cl)ccc1N` (stereo unspecified), the figures for the inhibition in series [2] and in series [1] were 15.2% and 33.9%, respectively.
On to `COc1ccc(N)c(C(=O)CCNC(=O)C2CCC2)c1`, for which the inhibition in series [1] amounted to 0.01%.
In the case of `CCCNC(=S)NCCC(O)c1ccccc1N` (stereo unspecified), the IC50 in series [3] was 880 µM; in series [4], above 1000 µM. Besides, the inhibition turned out to be 51.7% in series [2] and 31.1% in series [1].
For the compound `CCC(=O)NCCC(=O)c1cc(OC)ccc1N`, the inhibition in series [1] is 0.24%.
As for `CCCNC(=O)NCCC(O)c1cc(OC)ccc1N` (stereo unspecified), the inhibition in series [2] is 15.8%; in series [1], 14.7%.
